Measured values taken from PubChem BioAssay AID1259411 (Chemical Carcinogenesis Research Information System (CCRIS), 2018).
The source made the active and inactive calls. How the calls were made is not given here.

Test system: rodent carcinogenicity bioassays, tumor incidence
Assay: CCRIS carcinogenicity studies
Details: Dose: 0
Method in brief: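 NCI-built, expert-reviewed records of carcinogenicity and related test outcomes (mutagenicity, tumor promotion/inhibition) compiled from published and report sources, historical span 1985-2011, not updated.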

Which results are given for `O=NN(CCO)C(=O)NCCCl`?
carcinogen call (Species: RAT, Strain/Sex: F344/FEMALE, Route: ORAL, 42 MG/L IN DRINKING WATER 5 D/WK FOR 30 WK (STUDY DURATION: LIFETIME), Tumor Site: Type of Lesion: LIVER: TUMOR, UTERUS: TUMOR, SKIN: TUMOR, Tumor Site: Type of Lesion: LIVER: TUMOR, UTERUS: TUMOR, SKIN: TUMOR): active; positive; carcinogen call (Species: RAT, Strain/Sex: F344/MALE, Route: ORAL, 42 MG/L IN DRINKING WATER 5 D/WK FOR 30 WK (STUDY DURATION: LIFETIME), Tumor Site: Type of Lesion: LIVER: TUMOR, LUNG: TUMOR, MESOTHELIUM: TUMOR, SKIN: TUMOR, Tumor Site: Type of Lesion: LIVER: TUMOR, LUNG: TUMOR, MESOTHELIUM: TUMOR, SKIN: TUMOR): active; positive

How did the carcinogen call (Species: RAT, Strain/Sex: F344/FEMALE, Route: ORAL, 1, 2% IN DRINKING WATER FOR 2 YR (STUDY DURATION: 2 YR), 1, 2% IN DRINKING WATER FOR 2 YR (STUDY DURATION: 2 YR)) turn out when `O=C(O)CCC(=O)O` was run?
The carcinogen call was “inactive; negative”.

And the carcinogen call (Species: RAT, Strain/Sex: F344/MALE, Route: ORAL, 1, 2% IN DRINKING WATER FOR 2 YR (STUDY DURATION: 2 YR), 1, 2% IN DRINKING WATER FOR 2 YR (STUDY DURATION: 2 YR))?
Its carcinogen call is “inactive; negative”.

Which results are given for `OC(O)C(Cl)(Cl)Cl`?
carcinogen call (Species: MOUSE, Strain/Sex: B6C3F1/FEMALE, Route: GAVAGE, 10, 25, 50 MG/KG BW ONCE AT 15 DAYS OF AGE (STUDY DURATION: 104 WK), 10, 25, 50 MG/KG BW ONCE AT 15 DAYS OF AGE (STUDY DURATION: 104 WK)): inactive; negative; carcinogen call (Species: MOUSE, Strain/Sex: B6C3F1/FEMALE, Route: GAVAGE, 25, 50, 100 MG/KG 5 D/WK FOR 104 WK (STUDY DURATION: 104 WK), 25, 50, 100 MG/KG 5 D/WK FOR 104 WK (STUDY DURATION: 104 WK), Tumor Site: Type of Lesion: PITUITARY GLAND (PARS DISTALIS): ADENOMA): equivocal; carcinogen call (Species: MOUSE, Strain/Sex: B6C3F1/FEMALE, Route: GAVAGE, 25, 50, 100 MG/KG BW ONCE AT 28 DAYS OF AGE (STUDY DURATION: 104 WK), 25, 50, 100 MG/KG BW ONCE AT 28 DAYS OF AGE (STUDY DURATION: 104 WK)): inactive; negative; carcinogen call (Species: MOUSE, Strain/Sex: B6C3F1/FEMALE, Route: GAVAGE, 100 MG/KG BW 5 D/WK FOR 3 MO (STUDY DURATION: 104 WK), Tumor Site: Type of Lesion: PITUITARY GLAND (PARS DISTALIS): ADENOMA): equivocal; carcinogen call (Species: MOUSE, Strain/Sex: B6C3F1/FEMALE, Route: GAVAGE, 100 MG/KG BW 5 D/WK FOR 6 MO (STUDY DURATION: 104 WK), Tumor Site: Type of Lesion: PITUITARY GLAND (PARS DISTALIS): ADENOMA): equivocal; carcinogen call (Species: MOUSE, Strain/Sex: B6C3F1/FEMALE, Route: GAVAGE, 100 MG/KG BW 5 D/WK FOR 12 MO (STUDY DURATION: 104 WK), Tumor Site: Type of Lesion: PITUITARY GLAND (PARS DISTALIS): ADENOMA): equivocal; carcinogen call (Species: MOUSE, Strain/Sex: B6C3F1/FEMALE, Route: INTRAPERITONEAL, 1000 NMOL TOTAL DOSE, 1/3 AND 2/3 OF THE TOTAL DOSE ADMINISTERED AT 8 AND 15 DAYS OF AGE RESPECTIVELY, ANIMALS TERMIN): inactive; negative; carcinogen call (Species: MOUSE, Strain/Sex: B6C3F1/FEMALE, Route: INTRAPERITONEAL, 2000 NMOL TOTAL DOSE, 3/7 AND 4/7 OF THE TOTAL DOSE ADMINISTERED AT 8 AND 15 DAYS OF AGE RESPECTIVELY, ANIMALS TERMIN): inactive; negative; carcinogen call (Species: MOUSE, Strain/Sex: B6C3F1/MALE, Route: GAVAGE, 10, 25, 50 MG/KG BW ONCE AT 15 DAYS OF AGE (STUDY DURATION: 104 WK), 10, 25, 50 MG/KG BW ONCE AT 15 DAYS OF AGE (STUDY DURATION: 104 WK)): inactive; negative; carcinogen call (Species: MOUSE, Strain/Sex: B6C3F1/MALE, Route: GAVAGE, 25, 50, 100 MG/KG IN WATER 5X/WK FOR STUDY DURATION WITH AD LIBITUM FEEDING (STUDY DURATION: 104-105 WK), 25, 50, 100 MG/KG IN WATER 5X/WK FOR STUDY DURATION WITH AD LIBITUM FEEDING (STUDY DURATION: 104-105 WK), Tumor Site: Type of Lesion: LIVER: HEPATOCELLULAR ADENOMA OR CARCINOMA): active; positive; carcinogen call (Species: MOUSE, Strain/Sex: B6C3F1/MALE, Route: GAVAGE, 25, 50, 100 MG/KG IN WATER 5X/WK FOR STUDY DURATION WITH DIETARY-CONTROLLED FEEDING TO MAINTAIN IDEAL BODY WEIGHT (ST, 25, 50, 100 MG/KG IN WATER 5X/WK FOR STUDY DURATION WITH DIETARY-CONTROLLED FEEDING TO MAINTAIN IDEAL BODY WEIGHT (ST, Tumor Site: Type of Lesion: LIVER: HEPATOCELLULAR ADENOMA OR CARCINOMA): active; positive; carcinogen call (Species: MOUSE, Strain/Sex: B6C3F1/MALE, Route: INTRAPERITONEAL, 1000 NMOL TOTAL DOSE, 1/3 AND 2/3 OF THE TOTAL DOSE ADMINISTERED AT 8 AND 15 DAYS OF AGE RESPECTIVELY, ANIMALS TERMIN): inactive; negative; carcinogen call (Species: MOUSE, Strain/Sex: B6C3F1/MALE, Route: INTRAPERITONEAL, 2000 NMOL TOTAL DOSE, 3/7 AND 4/7 OF THE TOTAL DOSE ADMINISTERED AT 8 AND 15 DAYS OF AGE RESPECTIVELY, ANIMALS TERMIN): inactive; negative; carcinogen call (Species: MOUSE, Strain/Sex: B6C3F1/MALE, Route: ORAL, 0.05, 0.5, 1 G/L IN DRINKING WATER FOR 104 WK (STUDY DURATION: 104 WK), 0.05, 0.5, 1 G/L IN DRINKING WATER FOR 104 WK (STUDY DURATION: 104 WK), Tumor Site: Type of Lesion: LIVER: HEPATOCELLULAR ADENOMA OR CARCINOMA): active; positive; carcinogen call (Species: MOUSE, Strain/Sex: B6C3F1/MALE, Route: ORAL, 1 G/L DISTILLED DRINKING WATER FOR STUDY DURATION (166 MG/KG/D) (STUDY DURATION: 104 WK), Tumor Site: Type of Lesion: LIVER: HEPATOCELLULAR CARCINOMA, HEPATOCELLULAR ADENOMA): active; positive; carcinogen call (Species: RAT, Strain/Sex: F344/N/MALE, Route: ORAL, 0.05, 0.5, 2 G/L IN DRINKING WATER FOR 104 WK (STUDY DURATION: 104 WK), 0.05, 0.5, 2 G/L IN DRINKING WATER FOR 104 WK (STUDY DURATION: 104 WK)): inactive; negative; carcinogen call (Species: RAT, Strain/Sex: SPRAGUE-DAWLEY/FEMALE, Route: ORAL, 15, 45, 135 MG/KG BW/D IN DRINKING WATER FOR 128 WK (STUDY DURATION: 128 WK), 15, 45, 135 MG/KG BW/D IN DRINKING WATER FOR 128 WK (STUDY DURATION: 128 WK)): inactive; negative; carcinogen call (Species: RAT, Strain/Sex: SPRAGUE-DAWLEY/MALE, Route: ORAL, 15, 45, 135 MG/KG BW/D IN DRINKING WATER FOR 124 WK (STUDY DURATION: 124 WK), 15, 45, 135 MG/KG BW/D IN DRINKING WATER FOR 124 WK (STUDY DURATION: 124 WK)): inactive; negative

`C=CN1CCCC1=O` was tested. Which carcinogen call (Species: RAT, Strain/Sex: SPRAGUE-DAWLEY/ MALE, Route: INHALATION, 5, 10, 20 PPM 6 HR/D 5D/WK FOR 24 MO (STUDY DURATION: 24 MO), 5, 10, 20 PPM 6 HR/D 5D/WK FOR 24 MO (STUDY DURATION: 24 MO), Tumor Site: Type of Lesion: LARYNX: SQUAMOUS CELL CARCINOMA, LIVER: HEPATOCELLULAR CARCINOMA, NASAL CAVITY: ADENOCARCINOMA, ADENOMA, Tumor Site: Type of Lesion: LARYNX: SQUAMOUS CELL CARCINOMA, LIVER: HEPATOCELLULAR CARCINOMA, NASAL CAVITY: ADENOCARCINOMA, ADENOMA) did it give?
The carcinogen call was “active; positive”.

And the carcinogen call (Species: RAT, Strain/Sex: SPRAGUE-DAWLEY/FEMALE, Route: INHALATION, 5, 10, 20 PPM 6 HR/D 5 D/WK FOR 24 MO (STUDY DURATION: 24 MO), 5, 10, 20 PPM 6 HR/D 5 D/WK FOR 24 MO (STUDY DURATION: 24 MO), Tumor Site: Type of Lesion: LARYNX: SQUAMOUS CELL CARCINOMA, LIVER: HEPATOCELLULAR CARCINOMA, NASAL CAVITY: ADENOCARCINOMA, ADENOMA, Tumor Site: Type of Lesion: LARYNX: SQUAMOUS CELL CARCINOMA, LIVER: HEPATOCELLULAR CARCINOMA, NASAL CAVITY: ADENOCARCINOMA, ADENOMA)?
Its carcinogen call is “active; positive”.

`NC(N)=NC(N)=NCCc1ccccc1` was tested. Which carcinogen call (Species: MOUSE, Strain/Sex: B6C3F1/FEMALE, Route: ORAL, 1200, 2500 PPM IN DIET, 1200, 2500 PPM IN DIET) did it give?
The carcinogen call was “inactive; negative”.

What about the carcinogen call (Species: MOUSE, Strain/Sex: B6C3F1/MALE, Route: ORAL, 1200, 2500 PPM IN DIET, 1200, 2500 PPM IN DIET) of the same compound?
The carcinogen call was “inactive; negative”.

And the carcinogen call (Species: RAT, Strain/Sex: F344/FEMALE, Route: ORAL, 15000, 30000 PPM IN DIET, 15000, 30000 PPM IN DIET)?
The carcinogen call was “inactive; negative”.

What about the carcinogen call (Species: RAT, Strain/Sex: F344/MALE, Route: ORAL, 15000, 30000 PPM IN DIET, 15000, 30000 PPM IN DIET) of the same compound?
The carcinogen call was “inactive; negative”.
